We go through 2 compounds from publication PMC4249961, “Characterization of an Acidic Chitinase from Seeds of Black Soybean (Glycine max (L) Merr Tainan No. 3)” (PLoS ONE, 2014).

Molecules are shown by their SMILES.

In test [1] the test system is T1, purified chitinase from black soybean seeds (acidic chitinase, 20.1 kDa).
T1 construct: native purification from seeds; monomer; smaller than known soybean seed class III (28 kDa) and class I (32 kDa) chitinases; trace basic isoform co-purified
The experiment in a line: p-nitrophenol release at […] nm, Lineweaver-Burk. It is filed as biochemical, Glycine max. The settings on record: pH 4.0, 37 °C, 0.05 M acetate, 30 min.

Test [2] has the same test system. The test can be described thus: fluorimetric release of 4-methylumbelliferone, Lineweaver-Burk. The settings on record: pH 5.0, 40 °C, 0.05 M sodium acetate, 30 min. The test is classed as biochemical, Glycine max. An excerpt:
fluorimetric release of 4-methylumbelliferone, Lineweaver-Burk on purified chitinase from black soybean seeds (acidic chitinase, 20.1 kDa)

A word on the Km: it is the substrate concentration at which the rate is half of its maximum.

Take `CC(=O)N[C@H]1[C@H](Oc2ccc([N+](=O)[O-])cc2)O[C@H](CO)[C@@H](O[C@@H]2O[C@H](CO)[C@@H](O[C@@H]3O[C@H](CO)[C@@H](O[C@@H]4O[C@H](CO)[C@@H](O)[C@H](O)[C@H]4NC(C)=O)[C@H](O)[C@H]3NC(C)=O)[C@H](O)[C@H]2NC(C)=O)[C@@H]1O` [pNp-GlcNAc4]: the Km in test [1] is 245 µM.
As for `CC(=O)N[C@H]1[C@H](Oc2ccc3c(C)cc(=O)oc3c2)O[C@H](CO)[C@@H](O[C@@H]2O[C@H](CO)[C@@H](O[C@@H]3O[C@H](CO)[C@@H](O)[C@H](O)[C@H]3NC(C)=O)[C@H](O)[C@H]2NC(C)=O)[C@@H]1O` [4-MU-GlcNAc3], in test [2], the Km was 17.4 µM.
